Data reported in patent US8329710B2, “Metformin folate and preparation of the same” (Sino-Us Pficker Pharmaceuticals Co., priority 2006, dated 2012).
Where a name gives a salt, the structure may show the parent alone.

Tests used:
normal healthy mice [1] = experiment: Animal test: blood glucose level in normal healthy mice (control groups), 10 days; format: in vivo; details: for blood glucose level, After use: normal healthy mice, day 10, folacin-metformin 350 mg/kg body weight, metformin hydrochloride 100 mg/kg body weight, mean of 6 mice
Protocol: (§1) The female mice were induced to diabetic mice by streptozotocin (body weight […]), 6 animals in one group. The data in the table below represented the average of the values of six mice. Normal healthy mice were used as control group 1, control group 2, and control group 3. Control group 1 was administered folacin-metformin (350 mg/kg body weight), control group 2 was administered metformin hydrochloride (100 mg/kg body weight), and control group 3 was administered normal saline. Diabetic mice were divided into three groups, each group was fed folacin-metformin (350 mg/kg body weight), metformin hydrochloride (100 mg/kg body weight) and normal saline, separately. The test lasted for 10 days, and the blood glucose levels and the homocysteine concentrations were detected for all the mice by the end of the test.
(§2) On day 10 of the test, test mice were anaesthetized by i.p. injection of 65 mg/kg body weight of sodium pentobarbital, then collected blood sample from the abdominal aorta. Blood glucose levels were determined by a standard protocol (Methods of Enzymatic Analysis, Vol. 3, 2nd ed. Verlag Chemie International, 1981, p1196-1201), and the homocysteine concentrations in the blood samples were determined using high performance liquid chromatograph according to the literature (Eur. J. Clin. Chem. Clin. Biochem. 1991, 29, 549-554).

normal healthy mice [2] = experiment: Animal test: homocysteine concentration in blood of normal healthy mice (control groups), 10 days; format: in vivo; details: metformin hydrochloride 100 mg/kg body weight
Protocol: as §1, §2

[3] = test system: diabetic mice induced by streptozotocin; experiment: Animal test: blood glucose level in streptozotocin-induced diabetic mice, 10 days; format: in vivo; details: for capacity of lowering blood glucose, folacin-metformin compared with metformin hydrochloride (in words): diabetic mice, 10 days, 350 mg/kg vs 100 mg/kg body weight; for blood glucose level, After use: streptozotocin diabetic mice, day 10, folacin-metformin 350 mg/kg body weight, metformin hydrochloride 100 mg/kg body weight, mean of 6 mice
Protocol: as §1, §2

[4] = test system: diabetic mice induced by streptozotocin; experiment: Animal test: homocysteine concentration in blood of streptozotocin-induced diabetic mice, 10 days; format: in vivo; details: metformin hydrochloride 100 mg/kg body weight
Protocol: as §1, §2

[5] = after long-term use, recent clinical application; cited from earlier work

| Structure (SMILES) | effect on the blood glucose level (in words) (normal healthy mice [1]; healthy mice, 10 days, 350 mg/kg body weight) | blood glucose level, After use (normal healthy mice [1]) [mmol/L] | effect on the blood homocysteine concentration (in words) (normal healthy mice [2]; healthy mice, 10 days, folacin-metformin 350 mg/kg) | homocystein concentration, After use (normal healthy mice [2]; normal healthy mice, day 10, folacin-metformin 350 mg/kg body weight, mean of 6 mice) [µmol/L] | capacity of lowering blood glucose, folacin-metformin compared with metformin hydrochloride (in words) [3] | blood glucose level, After use [3] [mmol/L] | increase of the homocysteine concentration while lowering the blood glucose (in words) ([4]; diabetic mice, 10 days, folacin-metformin 350 mg/kg) | homocystein concentration, After use ([4]; streptozotocin diabetic mice, day 10, folacin-metformin 350 mg/kg body weight, mean of 6 mice) [µmol/L] | homocystein concentration in the patient (in words) [5] |
| --- | --- | --- | --- | --- | --- | --- | --- | --- | --- |
| CN(C)C(=N)N=C(N)N.Nc1nc2ncc(CNc3ccc(C(=O)N[C@@H](CCC(=O)O)C(=O)O)cc3)nc2c(=O)[nH]1 [folacin-metformin] | no effect | 7.2 ± 1.2 | slight lowering effect | 9.3 ± 1.1 | no difference | 7.4 ± 1.7 | does not increase | 8.9 ± 0.9 |  |
| CN(C)C(=N)N=C(N)N [metformin hydrochloride, reference compound] |  | 7.4 ± 1.7 |  |  | no difference | 7.6 ± 1.4 |  |  | substantially increased |
